# Results as given in patent US5763596A, “C-4' modified adenosine kinase inhibitors” (Metabasis Therapeutics, Inc., priority 1996, dated 1998).
# Like-named read-outs stand apart in the source and are kept apart here.
# Experiments:
# rat cardiomyocytes = conditions: adenosine deaminase inhibition alone; cited from earlier work
# [1] = system: isolated guinea pig hearts; conditions: in the absence of ADA inhibition; cited from earlier work
# rat brain slices = conditions: cited from earlier work
# mice = conditions: cited from earlier work
# guinea pig brain slices = conditions: cited from earlier work
# isolated rat hearts = conditions: cited from earlier work
# [2] = in vivo; cited from earlier work
# male SA rats [3] = experiment: rat skin lesion model, inhibition of neutrophil accumulation induced by carrageenan; assay type: in vivo; conditions: i.p.
# Method: The dorsal skin of male SA rats was shaved and carrageenan (Type λ) or phosphate-buffered saline was injected intradermally. Three hours later, the injection sites were biopsied and weighed. Neutrophil content of the skin biopsies was measured as the quantity of myeloperoxidase (MPO) present in a tissue homogenate. The excised, weighed skin pieces were placed in 4 ml 0.5% mixed alkyl trimethylammonium bromide and homogenized at the highest speed for 15 seconds in a Polytron homogenizer (Brinkmann Instruments, Westbury, N.Y.). Lipids were extracted by adding 1 ml of dichloromethane to the homogenate, vortexing vigorously, and centrifuging at 1000 g, 5° C. for 15 min. Fifty μl of each supernatant was added in duplicate to a 96 well assay plate, along with dilutions of human myeloperoxidase standard. Potassium phosphate buffer (pH 6.1) containing 0.36 mg/ml of o-dianisidine dihydrochloride and 0.001% hydrogen peroxide was added (200 μl/well), and the absorbance at 450 nm was read after 5 min incubation at room temperature. The myeloperoxidase content of each skin piece was calculated from a standard curve constructed using least-square regression, and expressed as units of MPO/g of tissue.
# AK inhibitors were administered orally using polyethylene glycol-400 as vehicle or intraperitoneally using dimethylsulfoxide as vehicle, at indicated time before skin lesion injection. For each experiment, the average of all values from saline-induced lesions was calculated. This baseline value was then subtracted from values obtained from carrageenan-induced lesions. Percent inhibition for AK inhibitors were calculated from these baseline-corrected values.
# Female SA rats = experiment: liver toxicity, serum SGOT, SGPT and total bilirubin; assay type: in vivo, rat; set-up: unit not given here; conditions: 2 x 37.5 μmol/kg i.v. infusion (total 75 μmol/kg), 12 h after second dose
# Method: Female SA rats (150-200 g) were anesthetized with halothane and cannulated via the internal jugular vein. The animals were allowed to recover for 3 days. […] Twelve hours later, an additional 37.5 μmol kg was infused over 40 minutes (total dose=75 μmol/kg). Twelve hours after the second dose, the animals were anesthetized with halothane and exsanguinated through the descending aorta. Serum was prepared and liver enzymes (serum glutamic-oxaloacetic transaminase (SGOT), serum glutamic-pyruvic transaminase (SGPT)) and total bilirubin in the serum samples were determined by a commercial laboratory.
# adenosine kinase = adenosine kinase (AK) inhibition; assay type: biochemical, pig heart or recombinant human; conditions: 0.5 μM [U-14C] adenosine, pH 7.0, 20 minutes
# Method: Adenosine kinase activity was measured essentially as described by Yamada et al. (Yamada, Y., Goto, H., Ogasawara, N. (1988) Biochim. Biophys. Acta 660, 36-43.) with a few minor modifications. […] Natl. Acad. Sci. […] The reactions were incubated for 20 minutes at […] The assay was quenched upon spotting 30 μL aliquots onto 2 cm^2 pieces of Whatman DE81 anion exchange paper. The papersquares were washed for 3 minutes in 6 L distilled/deionized water to remove the unreacted adenosine. The washed squares were rinsed in 95% ethanol and dried in an oven at 100° C. for 10 minutes. The amount of ^14 C-AMP was quantified by scintillation counting.
# Rats (male, Simonsen) = experiment: formalin paw model; assay type: in vivo, rat; set-up: concentration or dose not given beside the values; conditions: oral, 90 min before formalin
# Method: In this assay, injection of formalin, an irritant, into the hindpaw of rats typically evokes a biphasic response of pain-related behaviors. Phase 1 of the response which is brief, lasting approximately 0-5 min post-injection,is followed by a more prolonged phase 2, lasting approximately 10-80 min post-injection. Phase 1 behavior is thought to be a direct effect of the irritant on nociceptors at the injection site while phase 2 behavior is thought to include a hyperalgesic component mediated by sensitization of neuronal elements within the spinal cord. Studies from other laboratories have found the first portion of Phase 2 (sometimes referred to as Phase 2a) to be most responsive to pharmacological manipulation.
# Rats (male, Simonsen) weighing between 100-200 g, are used in the present experiments. For screening purposes drugs are administered orally 90 min prior to initiation of formalin test. At designated intervals the animals in groups of 4 are placed individually in a small animal restrainer with the right hindpaw accessible through a hole in the bottom of the restrainer. The formalin paw assay is initiated by the injection using a 30G needle of 50 μl of a 5% formalin solution in saline into the right plantar surface of each hindpaw. The rat is then immediately placed in a separate plexiglass box and scoring (described below) of the animal's behavior is begun at 1.7 min after formalin injection. The instantaneous behavior of each animal in a group of 4 was observed and assigned a score once in each 20 second interval. This sequence is repeated over a 30 min period. The scoring protocol is an adaptation of the method published by Dubuisson and Dennis (Pain 4:161-174, 1977) which assigns a score from 0-3 as follows:
# 0--no discernible favoring of injected paw, weight evenly distributed
# 1--injected paw is favored, rests lightly on floor
# 2--injected paw is elevated
# 3--injected paw is vigorously licked, bitten or shake
# Scores are continuously recorded directly onto an Excel spreadsheet. […] 2) the total number of incidences specifically of licking/biting behavior is summed over Phase 2 and mean values determined from 6 different animals with results expressed as % inhibition compared to vehicle control.
# Rats = experiment: anti-inflammatory activity, carrageenan paw; assay type: in vivo, rat; conditions: 10 mg/kg, swelling after 3 hours
# Method: Carrageenan (Type λ) was suspended in sterile PBS at 1% (w/v), autoclaved for 30 minutes, and stored at room temperature. Rats were pretreated with vehicle or AK inhibitor (10 mg/kg) by oral gavage or i.p. administration and the volume of the left hind paw was measured using a water displacement plethysmometer (Stoelting Co., Wood Dale, Ill.). One hour after oral treatment or 30 minutes after i.p. treatment, the rats were briefly anaesthetized, and 0.1 ml of the carrageenan solution was injected subcutaneously into the planar surface of the left hind paw. The ensuing paw swelling was measured by plethysmometry after 3 hours. The paw volume in milliliters was subtracted from the pre-injection paw volume. Data are presented in Table 8 as the percent inhibition of paw swelling in AK inhibitor treated animals, compared to vehicle treated control animals.
# male SA rats [4] = experiment: anticonvulsant activity, maximal electroshock (MES) model; assay type: in vivo; conditions: Rattus norvegicus, ip, 1 h before MES; >5 / <5: fewer / more than 50% of animals inhibited at 5 mg/kg in initial screen
# Method: The anticonvulsant activity of the tested compounds was evaluated in male SA rats (100-150 g, Simonsen) using the maximal electroshock (MES) model described in Swinyard et al., Antiepileptic Drugs, 3d Ed. at 85-102 (Levy, et al., eds.), NY: Raven Press (1989). The rats were maintained on a 12/12 light/dark cycle in temperature controlled facilities with free access to food and water. For p.o. administration, the animals are fasted overnight, prior to the experiment. One hour prior to seizure testing, the animals were injected interperitoneally (ip) or orally (per os, po) with one of various doses of test compound dissolved in DMSO or PEG 400.
# Maximal electroshock seizures (MES) were induced by administering a 150 mA, 60 Hz current for 0.2 seconds via corneal electrodes using a Wahlquist Model H stimulator. […] This endpoint was expressed as the percentage of animals in which the response was inhibited. Typically, compounds were screened initially at one hour following a dose of 5 mg/kg ip. […] The results for exemplary compounds of the invention are set forth in Table 8, expressed as ED50 values.
smiles,measurement,setting,value
OC[C@H]1O[C@@H](n2cnc3c2N=CNC[C@H]3O)C[C@@H]1O [2'-deoxycoformycin],effect on adenosine release from the cells,rat cardiomyocytes,no effect on adenosine release
NC[C@H]1O[C@@H](n2cnc3c(N)ncnc32)[C@H](O)[C@@H]1O [5'-amino-5'-deoxyadenosine],adenosine release effect,[1],not apparent
C[C@H]1O[C@@H](n2cc(I)c3c(N)ncnc32)[C@H](O)[C@@H]1O [5'-deoxy-5-iodotubercidin],adenosine uptake,rat brain slices,adenosine uptake was reportedly inhibited
same,general flaccidity,mice,pronounced general flaccidity
same,adenosine uptake,guinea pig brain slices,adenosine uptake was reportedly inhibited
Nc1ncnc2c1c(I)cn2[C@@H]1O[C@H](CO)[C@@H](O)[C@H]1O [5-iodotubercidin],adenosine uptake,rat brain slices,adenosine uptake was reportedly inhibited
same,increase in perfusate adenosine concentration,"isolated rat hearts; hypoxic, anoxic or ischemic conditions",no increase in perfusate adenosine concentration
same,increase in perfusate adenosine concentration,isolated rat hearts; normoxic conditions,no increase in perfusate adenosine concentration
same,general flaccidity,mice,pronounced general flaccidity
same,protection against ischemic cerebral injury,[2],apparently does not protect against ischemic cerebral injury
same,adenosine uptake,guinea pig brain slices,adenosine uptake was reportedly inhibited
O[C@@H]1[C@H](O)CO[C@H]1n1cc(-c2ccccc2)c2c(Nc3ccccc3)ncnc21 [compound 27],% inhibition of neutrophil accumulation,"male SA rats [3]; pretreatment 30 min, 3 mg/kg",2%
same,% inhibition of neutrophil accumulation,"male SA rats [3]; pretreatment 30 min, 10 mg/kg",59%
same,% inhibition of neutrophil accumulation,"male SA rats [3]; pretreatment 30 min, 30 mg/kg",89%
same,% inhibition of neutrophil accumulation,"male SA rats [3]; pretreatment 60 min, 10 mg/kg",60%
same,% inhibition of neutrophil accumulation,"male SA rats [3]; pretreatment 120 min, 10 mg/kg",14%
same,% inhibition of neutrophil accumulation,"male SA rats [3]; pretreatment 180 min, 10 mg/kg",2%
same,% inhibition of neutrophil accumulation,"male SA rats [3]; pretreatment 240 min, 10 mg/kg",0%
same,% inhibition of neutrophil accumulation,"male SA rats [3]; pretreatment 360 min, 10 mg/kg",0%
same,average serum Total Bilirubin,Female SA rats,0.14
same,average serum content of SGOT,Female SA rats,114
same,average serum content of SGPT,Female SA rats,41
same,IC50,adenosine kinase,4 nM
same,% Inhibition Phase 1 Composite score,"Rats (male, Simonsen); 1.7-5 min post-formalin",25.5%
same,% Inhibition Phase 2 Composite score,"Rats (male, Simonsen); 10.3-30 min post-formalin",47.6%
same,% Inhibition Phase 2. Licking/biting,"Rats (male, Simonsen); Phase 2",77.5%
same,Carrageenan Paw (% inh) i.p.,"Rats; i.p., 30 min before carrageenan",44%
same,Carrageenan Paw (% inh) p.o.,"Rats; p.o., 1 h before carrageenan",12%
same,ED50 at 5 mg/kg,male SA rats [4],< 5 mg/kg
